Data published in US10653651B2, “Kit for treating cancer with low molecular weight components of aurin tricarboxylic acid complex” (Aurin Biotech Inc., priority 2014, dated 2020).

Key:
Format in all cases: cell-based, human
U251 cells = assay: DNA laddering (apoptosis) in U251 cells; conditions: 10 μM, 1 day, agarose gel
Procedure: (§1) For determination of DNA laddering, which is indicative of DNA disintegration, cells were precipitated by centrifugation, washed, and lysed with […] Tris-HCl, 5 mM EDTA, and 3% Triton-X-100. The lysates were incubated at 37° C. for 1 h and then centrifuged at 12,000g for 10 min. They were treated with phenol/chloroform/isoamylalcohol (25:24:1) and chloroform/isoamylalcohol (24:1) twice each, and precipitated with 0.6 volume isopropyl alcohol and 0.1 volume 3 M sodium actate at −20° C. for 30 min. The precipitates were centrifuged at 12,000 g for 20 min, washed with 70% ethanol and dissolved with TE buffer containing 2 μg/mL bovine RNase. DNAs were electrophoresed in 10 μg/mL ethidium bromide containing 2% w/v agarose gel.

VEGF = assay: Western blot of VEGF expression and release by U251 cells; conditions: 10 μM, 1 day; for expression of vascular endothelial growth factor (VEGF) in U251 cells: cell extract; for release of VEGF into the extracellular milieu by U251 cells: supernatant
Procedure: Experiment 2 was designed to determine the effect of ATA, AQA, and AHA on the expression and release of Factor H and VEGF by U251 cells. Cells were grown in DMEM for 24 h at 37° C., after which ATA, AQA, or AHA was added to the medium at a final concentration of 10 μM and incubation carried out for a further 24 h. The medium was drawn off, and the cells washed with PBS. Lysis buffer was then added to the cells. Forty microliters of the cell lysate, or the supernatant media, were loaded onto 12% polyacrylamide gels and separated under non-reducing conditions (70 V, 3-6 h). Following SDS-PAGE, proteins were transferred to a PVDF membrane (Bio-RadTM, CA) at 30 mA for 2 h. The membranes were blocked with 5% milk in PBS-T (80 mM Na2HPO4, 20 mM NaH2PO4, 100 mM NaCl, 0.1% Tween 20, pH 7.4) for 1 h, and incubated overnight at 4° C. with primary antibodies for Factor H (CytotechTM, goat 1/1000) and for VEGF (MilliporeTM, rabbit 1/2000). The membranes were then washed 3 times with PBST. They were then treated with an appropriate horseradish peroxidase (HRP)-conjugated secondary antibody for 3 h at room temperature. The secondary antibodies were anti-rabbit IgG (P0448, DAKOTM, Mississauga, Ontario, CA, 1/2,000) and anti-goat IgG (A[…], MilliporeTM, Billerica, Ma, 1/3,000). The bands were visualized with an enhanced chemiluminescence system and exposure to photographic film (Hyperfilm ECLTM, AmershamTM Pharmacia Biotech, Little Chalfont, UK). For reprobing of membranes with an alternative antibody, the membranes were treated with 10 mL of stripping buffer (3 mL of 1 M Tris-HCl pH 6.7, 10 mL of 10% SDS, 347 μL of 14 M mercaptoethanol, and 36.5 mL deionized water) at 60° C. for 1 h. The membrane was then placed on a shaking incubator for 30 min to clear it of all bound antibodies. The stripped membrane was then treated with a different primary antibody as previously described.

Factor H = assay: Western blot of Factor H expression in A549 cells; conditions: 10 μM, 1 day, cell extract
Procedure: Experiment 2 was designed to determine the effect of ATA, AQA, and AHA on the expression and release of Factor H and VEGF by U251 cells. Cells were grown in DMEM for 24 h at 37° C., after which ATA, AQA, or AHA was added to the medium at a final concentration of 10 μM and incubation carried out for a further 24 h. The medium was drawn off, and the cells washed with PBS. Lysis buffer was then added to the cells. Forty microliters of the cell lysate, or the supernatant media, were loaded onto 12% polyacrylamide gels and separated under non-reducing conditions (70 V, 3-6 h). Following SDS-PAGE, proteins were transferred to a PVDF membrane (Bio-Rad™, CA) at 30 mA for 2 h. The membranes were blocked with 5% milk in PBS-T (80 mM Na2HPO4, 20 mM NaH2PO4, 100 mM NaCl, 0.1% Tween 20, pH 7.4) for 1 h, and incubated overnight at 4° C. with primary antibodies for Factor H (Cytotech™, goat 1/1000) and for VEGF (Millipore™, rabbit 1/2000). The membranes were then washed 3 times with PBST. They were then treated with an appropriate horseradish peroxidase (HRP)-conjugated secondary antibody for 3 h at room temperature. The secondary antibodies were anti-rabbit IgG (P0448, DAKO™, Mississauga, Ontario, CA, 1/2,000) and anti-goat IgG (AP106P, Millipore™, Billerica, Ma, 1/3,000). […]

A549 cells = assay: DNA laddering (apoptosis) in A549 cells; conditions: 10 μM, 1 day, agarose gel
Procedure: as §1
The protocol was identical to that used in Experiment 7 except A549 cells were used.

aurin hexacarboxylic acid [AHA]
DNA fragmentation (180 bp laddering) in U251 cells (U251 cells): induced DNA fragmentation
expression of vascular endothelial growth factor (VEGF) in U251 cells (VEGF): reducing expression
release of VEGF into the extracellular milieu by U251 cells (VEGF): reducing release
expression of Factor H in A549 cells (Factor H): reduced expression
DNA fragmentation (180 bp laddering) in A549 cells (A549 cells): induced DNA fragmentation

aurin quadracarboxylic acid [AQA]
DNA fragmentation (180 bp laddering) in U251 cells (U251 cells): induced DNA fragmentation
expression of vascular endothelial growth factor (VEGF) in U251 cells (VEGF): reducing expression
release of VEGF into the extracellular milieu by U251 cells (VEGF): reducing release
expression of Factor H in A549 cells (Factor H): reduced expression
DNA fragmentation (180 bp laddering) in A549 cells (A549 cells): induced DNA fragmentation
